The values that follow come from ChEMBL document CHEMBL1141443, “Antifibrotic phenanthrenes of Dendrobium nobile stems” (J Nat Prod, 2007).

Several values for one entry are separate records, joined by “and”; a condition that tells them apart may be missing. Identical values can stand only once. Some results are limits rather than exact numbers.

The test system of data set [1] is Hepatocyte. In words: Cytotoxicity against rat hepatocytes at 10 to 100 uM. It is filed as cell-based.
Data set [2] can be described thus: Antiproliferative activity against rat HSC-T6 cells after 48 hrs by MTT assay. It is filed as functional, cell-based. (Tetrazolium assays rely on reduction of a dye to a coloured formazan, in cell work by metabolically active cells.)
[3] abbreviates: Rattus norvegicus, HSC-T6, 48 h.

In the case of `COc1c(O)cc2c(c1OC)-c1ccc(O)cc1CC2` [ERIANTHRIDIN], the Activity entry in data set [1] is listed as “Non-toxic”. Further, it took 73.2 µM to reach half-maximal inhibition in data set [2] (setting [3]) (IC50).

Regarding `COc1ccc2c(c1O)CCc1cc(O)c(OC)c(OC)c1-2`, in data set [1], the Activity result was “Non-toxic”. The IC50 in data set [2] (setting [3]) is 35.7 µM.

On to `COc1ccc2c(c1)CCc1cc(O)cc(OC)c1-2` [COELONIN], for which, in data set [1], the Activity entry was “Non-toxic”. Besides, the IC50 in data set [2] (hsc-t6) is 13.4 µM and 69.1 µM.

Take `COc1c(O)cc2ccc3cccc(O)c3c2c1OC`: the Activity entry in data set [1] was “Non-toxic”. In data set [2] (setting [3]), this molecule registered an IC50 of over 100 µM.

As for `COc1cc2c(c(O)c1OC)-c1ccc(O)cc1CC2` [EPHEMERANTHOL A], in data set [1], the Activity entry is on record as “Non-toxic”. Half-maximal inhibition in data set [2] (setting [3]) (IC50) required 79.2 µM.

As to `COc1cc(O)c2c(c1)CCc1cccc(O)c1-2`, in data set [1], the Activity result was “Non-toxic”. In data set [2] (setting [3]), this molecule gave an IC50 of over 100 µM.

Turning to `COc1ccc2c(c1)CCc1cc(O)c(OC)c(OC)c1-2`, in data set [1], the Activity result is listed as “Non-toxic”. Moreover, the half-inhibitory concentration (IC50) in data set [2] (setting [3]) is over 100 µM.

Turning to `COc1ccc2c(c1)CCc1c(-c3c(O)c(OC)c(OC)c4c3CCc3cc(OC)ccc3-4)c(O)c(OC)c(OC)c1-2`, the Activity entry in data set [1] is “Non-toxic”. Moreover, the IC50 in data set [2] (setting [3]) came out at 88.2 µM.

Take `COC1=CC(=O)c2ccc3cc(OC)cc(O)c3c2C1=O` [DENBINOBIN]: the Activity result in data set [1] is reported as “Non-toxic”. The molecule further yielded an IC50 in data set [2] (setting [3]) of 15.2 µM.

Regarding `COc1c(O)c(O)cc2ccc3cccc(O)c3c12` [FIMBRIOL B], the Activity entry in data set [1] is listed as “Non-toxic”. The concentration for half-maximal inhibition (IC50) in data set [2] (setting [3]) is 11 µM.

For the molecule `COc1cc2cc(O)c(O)c(OC)c2c2c(O)cccc12`, the Activity result in data set [1] is given as “Non-toxic”. This molecule returned an IC50 in data set [2] (setting [3]) of 9 µM.

As to `COc1c(OC)c2cc(O)cc(OC)c2c2c(O)cccc12` [PLICATOL A], the Activity result in data set [1] was “Non-toxic”. Besides, in data set [2] (setting [3]), the IC50 was over 100 µM.

Take `COc1ccc2c(ccc3cc(OC)c(O)c(OC)c32)c1`: the Activity entry in data set [1] is reported as “Non-toxic”. In data set [2] (setting [3]), this molecule returned an IC50 of over 100 µM.

For `COc1c(O)cc2ccc3cc(O)ccc3c2c1OC` [NUDOL], in data set [1], the Activity entry was “Non-toxic”. In data set [2] (setting [3]), this molecule had an IC50 of over 100 µM.

As for `COc1ccc2c(c1)CCc1cc(OC)c(O)c(OC)c1-2`, the Activity entry in data set [1] was “Non-toxic”. Also, the IC50 in data set [2] (setting [3]) was over 100 µM.

Take `O=C(O[C@@H]1Cc2c(O)cc(O)cc2O[C@@H]1c1cc(O)c(O)c(O)c1)c1cc(O)c(O)c(O)c1` [EPIGALOCATECHIN GALLATE]: the IC50 in data set [2] (setting [3]) turned out to be 9.9 µM.

In the case of `COc1cc2ccc3cccc(O)c3c2c(OC)c1O` [BULBOPHYLLANTHRIN], in data set [1], the Activity result was “Non-toxic”. This molecule also registered an IC50 in data set [2] (setting [3]) of 50.9 µM.

In the case of `COc1cc(O)c2c(c1)CCc1cc(O)ccc1-2` [LUSIANTHRIDIN], in data set [1], the Activity entry is reported as “Non-toxic”. The molecule also gave an IC50 in data set [2] (setting [3]) of 61.2 µM.

On to `COc1ccc2c(ccc3cc(O)c(OC)c(OC)c32)c1O`, for which the Activity result in data set [1] was “Non-toxic”. In data set [2] (setting [3]), this molecule showed an IC50 of 54.1 µM.

What is called IC50 is the point on the concentration scale where inhibition reaches its midpoint. High values mean weaker potency in that assay, low ones greater potency in that assay.
